Experimental data as given in US20230310539A1, “TREATMENT OF DISEASE WITH EPOR ANTAGONIST” (Epo-Med Inc., priority 2020, published 2023).
Where a SMILES comes first, the peptide text is derived from it. Bridges are numbered along the chain shown (N, C = ends). [ ]: non-standard residue; d: D form. Ala(benzothiazol-2-yl) = N[C@@H](Cc1nc2ccccc2s1)C(=O)O; NH = not defined here

B1: human erythropoietin receptor (EpoR), wild-type (receptor)
chain: APPPNLPDPKFESKAALLAARGPEELLCFTERLEDLVCFWEEAASAGVGPGNYSFSYQLEDEPWKLCRLHQAPTARGAVRFWCSLPTADTSSFVPLELRVTAASGAPRYHRVIHINEVVLLDAPVGLVARLADESGHVVLRWLPPPETPMTSHIRYEVDVSAGNGAGSVQRVEILEGRTECVLSNLRGRTRYTFAVRARMAEPSFGGFWSAWSEPVSLLTPSDLDPLILTLSLILVVILVLLTVLALLSHRRALKQKIWPGIPSPESEFEGLFTTHKGNFQLWLYQNDGCLWWSPCTPFTEDPPASLEVLSERCWGTMQAVEPGTDDEGPLLEPVGSEHAQDTYLVLDKWLLPRNPPSEDLPGPGGSVDIVAMDEGSEASSCSSALASKPSPEGASAASFEYTILDPSSQLLRPWTLCPELPPTPPHLKYLYLVVSDSGISTDYSSGDSQGAQGGLSDGPYSNPYENSLIPAAEPLPPSYVACS
notes: Endogenous on human AsPC-1, HCC1806 and UT-7/Epo cells, or overexpressed from a vector in AsPC-1 and 293T cells; also called Epo receptor; wild-type EpoR

Key:
[1] = Body weight of AsPC-1 cancer bearing mice; format: in vivo, mouse; details: ERA-350 0.2 mg/day intraperitoneally, twice a week for 4 weeks
Protocol: AsPC-1 cells cultured in the similar manner as Example 1 were collected, suspended in RPMI-1640 medium containing 10% Matrigel (BD Bioscience, 354234), and transplanted subcutaneously to the right side on the back of a 6-week-old male nude mouse (Japan SLC, BALB/cSlc-nu/nu) (5×10^6/0.1 mL/mouse). The length (L) and width (W) of the tumor were measured using a digital caliper. When the tumor volume (V) calculated from the formula V=L×W^2/2 reached about 150 to 200 mm^3, the mice were separated into groups and administered with test compounds (ERA-350 and ERA-350+gemcitabine). Saline was administered to a control group. The compounds were administered intraperitoneally (0.1 mL/mouse, 6 mice/test compound) once daily (0.2 mg/day for ERA-350, and 1 mg/day for gemcitabine), twice a week for 4 weeks. The tumor size and body weight were measured twice a week to monitor the effect of the administration of test compounds.

[2] = biological target: T1, EpoR in HCC1806 cells (Homo sapiens, UniProt P19235); test: Immunofluorescence co-localization of biotin-labeled anti-EpoR peptide with EpoR in HCC1806 cells; format: cell-based; details: 100 μM, 1 hour at 37° C.
T1 construct: human breast cancer derived HCC1806 cells (ATCC, CRL-2335); host or cells: HCC1806
T1 sequence (P19235 25-508): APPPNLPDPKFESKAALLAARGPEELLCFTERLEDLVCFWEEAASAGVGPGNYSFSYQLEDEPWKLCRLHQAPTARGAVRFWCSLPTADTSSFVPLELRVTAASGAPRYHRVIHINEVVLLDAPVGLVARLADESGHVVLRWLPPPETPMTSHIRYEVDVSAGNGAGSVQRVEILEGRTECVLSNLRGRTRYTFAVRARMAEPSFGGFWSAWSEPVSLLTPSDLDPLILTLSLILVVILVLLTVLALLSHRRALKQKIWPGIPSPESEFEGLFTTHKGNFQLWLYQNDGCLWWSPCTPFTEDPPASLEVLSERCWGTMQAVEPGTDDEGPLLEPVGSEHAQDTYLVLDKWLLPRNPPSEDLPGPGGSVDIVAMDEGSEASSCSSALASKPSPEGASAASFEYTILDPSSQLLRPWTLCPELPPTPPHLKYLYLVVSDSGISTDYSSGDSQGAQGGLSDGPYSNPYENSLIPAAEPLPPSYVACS
Protocol: (§1) The test used human pancreatic cancer derived AsPC-1 cells (ECACC, 96020930) and human breast cancer derived HCC1806 cells (ATCC, CRL-2335) that were passaged (twice/week) under the condition of 37° C. and 5% CO2-95% air using RPMI-1640 medium (Sigma, R8758-500 ML) containing 10% fetal bovine serum (biowest, S182H-500) and 1 mM sodium pyruvate (gibco, 11360-070).
(§2) These bone marrow cells (2×10^6 cells) and cancer cells (AsPC-1 cells and HCC1806 cells; both 2×10^3 cells) were incubated with GT-11352 (biotin labeled, 100 μM) for 1 hour at 37° C. in the presence or absence of recombinant human erythropoietin (rhEpo) (10 U/mL). Subsequently, the cells were fixed with formalin, blocked, and subjected to immunofluorescent staining. The nucleus was stained by DAPI staining. The cells were observed through fluorescence with a microscope (Keyence, BZ-X800). The following antibodies were used. • EpoR detection: rat anti-EpoR antibody (Merck, clone BCO-3H2) and anti-rat IgG-Alexa® Fluor 594 (Abcam, ab150160) • GT-11352 detection: streptavidin-FITC (Tokyo Chemical Industry, S0966)

[3] = biological target: T2, EpoR in bone marrow cells (Mus musculus, UniProt P14753); test: Immunofluorescence co-localization of biotin-labeled anti-EpoR peptide with EpoR in bone marrow cells; format: cell-based; details: 100 μM, 1 hour at 37° C.
T2 construct: tissue Japan SLC; host or cells: mouse (ICR, female) femur bone marrow cells
T2 sequence (P14753 25-507): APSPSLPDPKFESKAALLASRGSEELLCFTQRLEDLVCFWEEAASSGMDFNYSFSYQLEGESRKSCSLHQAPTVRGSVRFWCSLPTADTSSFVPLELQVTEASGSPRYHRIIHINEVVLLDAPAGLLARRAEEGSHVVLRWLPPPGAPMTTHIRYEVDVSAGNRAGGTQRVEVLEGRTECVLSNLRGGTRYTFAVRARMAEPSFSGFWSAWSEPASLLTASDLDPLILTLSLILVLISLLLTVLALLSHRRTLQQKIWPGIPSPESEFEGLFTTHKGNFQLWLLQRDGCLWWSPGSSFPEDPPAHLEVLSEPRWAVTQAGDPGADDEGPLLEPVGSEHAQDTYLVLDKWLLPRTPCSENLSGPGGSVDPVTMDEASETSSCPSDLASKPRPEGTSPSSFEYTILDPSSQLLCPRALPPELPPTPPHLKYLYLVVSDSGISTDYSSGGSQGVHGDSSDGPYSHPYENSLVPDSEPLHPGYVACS
Protocol: Bone marrow cells were harvested from mouse femur (Japan SLC, ICR, female).
as §2

[4] = biological target: T3, EpoR in AsPC-1 cells (Homo sapiens, UniProt P19235); test: Immunofluorescence co-localization of biotin-labeled anti-EpoR peptide with EpoR in AsPC-1 cells; format: cell-based; details: 100 μM, 1 hour at 37° C.
T3 construct: The test used human pancreatic cancer derived AsPC-1 cells (ECACC, 96020930); host or cells: AsPC-1
T3 sequence (P19235 25-508): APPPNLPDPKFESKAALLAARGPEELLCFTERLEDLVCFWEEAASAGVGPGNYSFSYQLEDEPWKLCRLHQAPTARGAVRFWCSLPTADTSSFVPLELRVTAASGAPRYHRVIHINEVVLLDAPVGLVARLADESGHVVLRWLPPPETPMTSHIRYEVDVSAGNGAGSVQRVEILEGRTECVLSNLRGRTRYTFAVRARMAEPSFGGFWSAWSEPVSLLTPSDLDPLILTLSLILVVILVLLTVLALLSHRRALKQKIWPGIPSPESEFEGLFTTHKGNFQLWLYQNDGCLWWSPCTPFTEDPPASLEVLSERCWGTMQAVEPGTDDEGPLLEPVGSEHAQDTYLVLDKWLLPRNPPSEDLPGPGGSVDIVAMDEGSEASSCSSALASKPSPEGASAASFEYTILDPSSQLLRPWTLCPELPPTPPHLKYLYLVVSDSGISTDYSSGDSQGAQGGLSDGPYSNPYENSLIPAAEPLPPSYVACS
Protocol: as §1, §2

[5] = biological target: T4, human βcR (CD131, CSF2RB) (human, UniProt P32927 17-897); test: co-immunoprecipitation from membrane fractions of AsPC-1 cells (IP with anti-EpoR VP-2E8, blot with anti-EpoR BCO-3H2 or anti-βcR polyclonal antibody)
T4 construct: Endogenous on AsPC-1 and HCC1806 cells; also called βc receptor; IL3RB
T4 sequence: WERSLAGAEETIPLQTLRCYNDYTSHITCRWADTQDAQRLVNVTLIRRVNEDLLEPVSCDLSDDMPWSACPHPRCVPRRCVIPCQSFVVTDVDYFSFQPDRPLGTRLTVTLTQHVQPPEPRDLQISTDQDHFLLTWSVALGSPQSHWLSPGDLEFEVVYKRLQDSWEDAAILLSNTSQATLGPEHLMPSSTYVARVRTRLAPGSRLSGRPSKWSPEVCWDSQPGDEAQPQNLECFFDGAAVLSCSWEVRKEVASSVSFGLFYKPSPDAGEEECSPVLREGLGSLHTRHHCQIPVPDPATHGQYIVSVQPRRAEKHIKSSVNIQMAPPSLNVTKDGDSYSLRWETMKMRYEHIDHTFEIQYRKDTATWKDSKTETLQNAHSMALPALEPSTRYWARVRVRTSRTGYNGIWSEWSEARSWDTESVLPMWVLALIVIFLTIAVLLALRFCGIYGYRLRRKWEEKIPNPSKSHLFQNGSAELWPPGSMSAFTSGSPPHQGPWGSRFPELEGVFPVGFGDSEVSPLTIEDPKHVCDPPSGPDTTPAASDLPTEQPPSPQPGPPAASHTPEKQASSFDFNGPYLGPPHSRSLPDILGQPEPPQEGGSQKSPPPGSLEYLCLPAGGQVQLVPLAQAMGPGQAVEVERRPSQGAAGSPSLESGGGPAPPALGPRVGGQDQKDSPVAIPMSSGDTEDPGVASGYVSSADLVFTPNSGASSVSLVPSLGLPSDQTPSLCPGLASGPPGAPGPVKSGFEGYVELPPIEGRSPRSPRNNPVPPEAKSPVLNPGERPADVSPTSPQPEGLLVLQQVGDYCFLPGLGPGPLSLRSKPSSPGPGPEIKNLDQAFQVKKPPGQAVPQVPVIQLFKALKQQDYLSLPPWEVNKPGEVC
Protocol: The stable expression strain was cultured and collected. Membrane fractions were prepared using a commercially available membrane protein extraction kit (Mem-PER Plus Membrane Protein Extraction Kit, Thermo Scientific).

[6] = biological target: B1; test: immunofluorescence colocalization on AsPC-1 and HCC1806 cells, GT-11352 100 µM, no rhEpo

In the case of CSCC[C@@H]1NC(=O)[C@@H]2CCCN2C(=O)CNC(=O)[C@H](Cc2ccc(O)cc2)NC(=O)[C@H](Cc2c[nH]cn2)NC(=O)[C@@H](NC(=O)[C@H](CO)NC(C)=O)CSSC[C@@H](C(=O)N[C@@H](CCCCN)C(N)=O)NC(=O)[C@H](C(C)C)NC(=O)[C@H](Cc2nc3ccccc3s2)NC(=O)[C@H]([C@@H](C)O)NC1=O [ERA-350] (Ac-SCHYGPMT[Ala(benzothiazol-2-yl)]VCK-NH2; disulfide 2-11), the Body weight [1] is reported as “did not affect the body weight”.

With “Ac-SCHYGPLT (2-benzothiazolylalanine)VCK-NH-(biotin) [GT-11352]” the “Co-localization of EpoR and peptide” value ([2]; absence of erythropoietin) was “exhibited colocalization”, the “Co-localization of EpoR and peptide” value ([2]; presence of rhEpo 10 U/mL) was “exhibited colocalization” and the “Co-localization of EpoR and peptide” value ([3]; absence of erythropoietin) was “exhibited colocalization”. For the same molecule, the “Co-localization of EpoR and peptide” value ([3]; presence of rhEpo 10 U/mL) was “did not exhibit co-localization”, the “Co-localization of EpoR and peptide” value ([4]; absence of erythropoietin) was “exhibited colocalization” and the “Co-localization of EpoR and peptide” value ([4]; presence of rhEpo 10 U/mL) was “exhibited colocalization”.

B1: binds [5].

B2: Ac-SCHYGPLT (2-benzothiazolylalanine)VCK-NH-(biotin) (GT-11352) (peptide)
peptide: Ac-SCHYGPLT[Ala(benzothiazol-2-yl)]VCK-{NH-biotin}
modifications: disulfide 2-11; reading uncertain; also: printed as Ac-SCHYGPLT (2-benzothiazolylalanine)VCK-NH-(biotin)
notes: Synthetic, biotin-labeled peptide; also called anti-EpoR peptide
B2: binds [6].
